# Assay results reported in publication PMC4929558, “A novel AhR ligand, 2AI, protects the retina from environmental stress” (Scientific Reports, 2016).
# What was measured:
# [1] = molecular target: T1, human AhR protein (humanized AhR liver cytosol) (Homo sapiens, UniProt P35869); assay: photoaffinity ligand competition, hepatic cytosol; format: binding; conditions: competition with 2-azido-3-[125I]iodo-7,8-dibromodibenzo-p-dioxin (0.21 pmol, saturating), 150 μg liver protein, room temperature 20 min, then UV 402 nm
# T1 construct: human AhR expressed in liver of humanized transgenic mice, B6.Cg-Ahr^tm3.1Bra Tg (Alb-cre, Ttr-AhR)1GHP; hepatic cytosol, not purified
# T1 sequence (P35869 11-848): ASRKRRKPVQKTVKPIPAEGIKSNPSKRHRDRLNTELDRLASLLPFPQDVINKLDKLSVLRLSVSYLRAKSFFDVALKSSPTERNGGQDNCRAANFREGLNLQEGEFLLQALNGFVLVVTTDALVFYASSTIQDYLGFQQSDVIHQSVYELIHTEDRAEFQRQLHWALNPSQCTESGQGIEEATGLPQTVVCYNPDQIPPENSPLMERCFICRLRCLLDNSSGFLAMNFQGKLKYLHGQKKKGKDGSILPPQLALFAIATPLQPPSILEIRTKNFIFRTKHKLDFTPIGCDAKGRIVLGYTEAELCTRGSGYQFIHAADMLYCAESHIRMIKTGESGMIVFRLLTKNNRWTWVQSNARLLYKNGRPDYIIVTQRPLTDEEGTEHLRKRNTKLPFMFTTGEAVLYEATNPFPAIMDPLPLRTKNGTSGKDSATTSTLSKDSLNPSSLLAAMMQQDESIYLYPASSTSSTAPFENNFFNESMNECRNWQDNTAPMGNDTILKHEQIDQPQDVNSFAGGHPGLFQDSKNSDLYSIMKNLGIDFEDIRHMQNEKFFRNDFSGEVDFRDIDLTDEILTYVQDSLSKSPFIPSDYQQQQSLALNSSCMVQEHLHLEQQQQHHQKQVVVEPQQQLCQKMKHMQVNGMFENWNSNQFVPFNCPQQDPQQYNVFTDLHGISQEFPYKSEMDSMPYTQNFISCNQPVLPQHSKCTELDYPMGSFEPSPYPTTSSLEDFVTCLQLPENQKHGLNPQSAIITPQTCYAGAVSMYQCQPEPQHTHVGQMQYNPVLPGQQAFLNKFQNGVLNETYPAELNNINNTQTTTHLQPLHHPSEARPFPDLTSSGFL
# [2] = molecular target: T2, AhR (XRE-luciferase reporter assay) (Homo sapiens, UniProt P35869); assay: XRE-luciferase reporter assay in cells; format: cell-based; conditions: agonist
# T2 construct: with Aryl hydrocarbon receptor nuclear translocator
# T2 sequence (P35869 11-848): T1 sequence (P35869 11-848)
# [3] = molecular target: T1, human AhR protein (humanized AhR liver cytosol); assay: photoaffinity labelling, SDS-PAGE, gamma counting; format: binding; conditions: labelled compound; covalent after UV photolysis; 0.21 pmol per tube, 150 μg liver protein
EC50 [2],SMILES,% photoaffinity label bound [1],"photoaffinity labelling, SDS-PAGE, gamma counting [3]"
3.5 µM,Nc1ccccc1-c1cc2ccccc2[nH]1 [2AI],2AI was able to out-compete the photoaffinity label bound to the human AhR protein,
,"[N-]=[N+]=Nc1cc2c(cc1I)Oc1cc(Br)c(Br)cc1O2 [PAL, 2-azido-3-[125I]iodo-7,8-dibromodibenzo-p-dioxin]",,Labeled AHR bands were excised and counted using a γ counter
